# Measured values: US20170319669A1, “METHOD OF ENHANCING VIRAL-MEDIATED GENE DELIVERY” (Wayne State University, priority 2016, published 2017)
# Peptide text beside a SMILES is read from it. * marks the point of attachment. Cbz = O=C(OCc1ccccc1)*
# Columns and labels:
# retinal bipolar cells = experiment: AAV-mediated transduction efficiency (mCherry expression) in retinal bipolar cells after intravitreal co-injection of rAAV2 vector with proteasome inhibitor; format: in vivo, C57BL/6J mice; settings: for transduction efficiency in retinal bipolar cells: about one month after virus injection; for expression (fluorescence intensity) of mCherry in bipolar cells: intravitreal
# From the text: FIG. 1A-B is a series of photographs and a graph depicting the effects of proteasomes on the AAV-mediated expression of transgene (mCherry) in retinal bipolar cells one month after virus injection. FIG. 1A: Representative images of virus transduced retinal bipolar cells. […] DOX: doxorubicin; Acla: Aclarubicin; MG: MG132. FIG. 1B. Statistical data for evaluating the fluorescence intensity of mCherry in bipolar cells one month after virus injection.
# FIG. 2A-B is a series of photographs and a graph depicting the effects of DOX on the AAV-mediated expression of transgene (mCherry) in retinal bipolar cells three months after virus injection. FIG. 2A. Representative images of virus transduced retinal bipolar cells three months after virus injection. Virus vectors were co-injected with DOX at different concentrations. FIG. 2B. Statistical data for evaluating the fluorescence intensity of mCherry in bipolar cells three months after virus injection.
# retinal ganglion cells = experiment: Density of retinal ganglion cells (DAPI staining) after virus injection with and without DOX; format: in vivo, C57BL/6J mice; settings: three months after virus injection; 300 μM and 500 μM DOX
# From the text: FIG. 4A-B is a series of photographs and a graph, depicting the effects of DOX on retinal ganglion cells. FIG. 4A. Representative images for evaluating the density of retinal ganglion cells with DAPI staining after virus transduction in bipolar cells with and without DOX at different concentrations. Animals were euthanized one and three months after virus injection. FIG. 4B. Statistical data for evaluating the density of retinal ganglion cells one and three months after virus injection with and without doxorubicin (DOX).
smiles,measurement,setting,value
CC(C)C[C@@H](C=O)NC(=O)[C@H](CC(C)C)NC(=O)[C@H](CC(C)C)NC(=O)OCc1ccccc1 [MG132] (Cbz-Leu-Leu-Leu-aldehyde),transduction efficiency in retinal bipolar cells,"retinal bipolar cells; MG132 100 μM, 200 μM, 500 μM",not found to enhance the transduction efficiency
CC[C@@]1(O)C[C@H](O[C@H]2C[C@H](N(C)C)[C@H](O[C@H]3C[C@H](O)[C@H](O[C@H]4CCC(=O)[C@H](C)O4)[C@H](C)O3)[C@H](C)O2)c2c(cc3c(c2O)C(=O)c2c(O)cccc2C3=O)[C@H]1C(=O)OC [aclarubicin],transduction efficiency in retinal bipolar cells,"retinal bipolar cells; aclarubicin 50 μM, 100 μM",not found to enhance the transduction efficiency
COc1cccc2c1C(=O)c1c(O)c3c(c(O)c1C2=O)C[C@@](O)(C(=O)CO)C[C@@H]3O[C@H]1C[C@H](N)[C@H](O)[C@H](C)O1 [doxorubicin],transduction efficiency in retinal bipolar cells,retinal bipolar cells; doxorubicin from 200 μM to 800 μM,concentration-dependent increase
same,optimal concentration to enhance the AAV transduction efficiency,"retinal bipolar cells; intravitreal co-injection with rAAV2 vector, mice",500 µM
same,expression (fluorescence intensity) of mCherry in bipolar cells,"retinal bipolar cells; one month after virus injection, co-injection of DOX at concentrations ≧300 μM, mice",significantly increased
same,expression (fluorescence intensity) of mCherry in bipolar cells,"retinal bipolar cells; three months after virus injection, co-injection of DOX at concentrations ≧200 μM, mice",significantly increased
same,retinal ganglion cell density vs control,retinal ganglion cells,statistically lower than that of control
